Test results reported in ChEMBL document CHEMBL5356971, “Optimization of the Antibacterial Spectrum and the Developability Profile of the Novel-Class Natural Product Corramycin” (J Med Chem, 2023).
The source made the active and inactive calls. The calls are words filed in the database; no cut-off is given here.

Experiments:
Escherichia coli [1] = assay: Antibacterial activity against Escherichia coli ATCC 35218 assessed as reduction in microbial growth incubated for 20 to 22 hrs by CLSI based analysis; assay type: functional; conditions: time 20-22 hrs
[2] = Metabolic stability in mouse kidney assessed as parent compound remaining measured after 4 hrs by UPLC-MS analysis; assay type: ADME, tissue-based; conditions: read-out: Stability
[3] = Metabolic stability in mouse lung assessed as parent compound remaining measured after 4 hrs by UPLC-MS analysis; assay type: ADME, tissue-based; conditions: for remaining at 4 h: mouse lung, read-out: Stability
Acinetobacter baumannii [4] = assay: Antibacterial activity against Acinetobacter baumannii ATCC 19606 assessed as reduction in microbial growth incubated for 20 to 22 hrs by CLSI based analysis; assay type: functional; conditions: time 20-22 hrs
[5] = Metabolic stability in mouse lung assessed as parent compound remaining measured after 1 hrs by UPLC-MS analysis; assay type: ADME, tissue-based; conditions: for remaining at 1 h: mouse lung, read-out: Stability
[6] = Metabolic stability in mouse kidney assessed as parent compound remaining measured after 1 hrs by UPLC-MS analysis; assay type: ADME, tissue-based; conditions: read-out: Stability
Klebsiella pneumoniae [7] = assay: Antibacterial activity against Klebsiella pneumoniae ATCC 13883 assessed as reduction in microbial growth incubated for 20 to 22 hrs by CLSI based analysis; assay type: functional; conditions: time 20-22 hrs
Escherichia coli [8] = assay: Antibacterial activity against Escherichia coli ATCC 35218 infected in Swiss albino mouse model of Septicaemia infection assessed as log reduction in Septicaemia in blood at 1 mg/kg , iv preincubated for 4 hrs followed by bacterial infection and measured after 4 hrs post infection; assay type: functional; conditions: time 8 hrs
Escherichia coli [9] = assay: Antibacterial activity against Escherichia coli ATCC 35218 infected in Swiss albino mouse model of Septicaemia infection assessed as log reduction in Septicaemia in blood at 20 mg/kg , iv preincubated for 4 hrs followed by bacterial infection and measured after 4 hrs post infection; assay type: functional; conditions: time 8 hrs
Escherichia coli [10] = assay: Antibacterial activity against Escherichia coli ATCC 25922 infected in Swiss albino mouse thigh infection model at 10 mg/kg, iv measured after 1 hr; assay type: functional, organism-based
Klebsiella pneumoniae [11] = assay: Antibacterial activity against wild type Klebsiella pneumoniae ATCC 13883 assessed as reduction in microbial growth incubated for 20 to 22 hrs by CLSI based analysis; assay type: functional; conditions: time 20-22 hrs
Escherichia coli [12] = assay: Antibacterial activity against Escherichia coli ATCC 35218 harboring SbmA assessed as reduction in microbial growth incubated for 20 to 22 hrs by CLSI based analysis; assay type: functional; conditions: time 20-22 hrs
Klebsiella pneumoniae [13] = assay: Antibacterial activity against Klebsiella pneumoniae ATCC 13883 infected in Swiss albino mouse thigh infection model at 10 mg/kg, iv measured after 1 hr; assay type: functional, organism-based
Escherichia coli [14] = assay: Antibacterial activity against wild type Escherichia coli ATCC 35218 assessed as reduction in microbial growth incubated for 20 to 22 hrs by CLSI based analysis; assay type: functional; conditions: time 20-22 hrs
Klebsiella pneumoniae [15] = assay: Antibacterial activity against Klebsiella pneumoniae ATCC 13883 infected in Swiss albino mouse model of neutropenic lung infection at 10 mg/kg, iv pretreated for 1 hr followed by bacterial infection and measured after 5 hr post infection; assay type: functional, organism-based; conditions: time 6.0 hrs
Acinetobacter baumannii [16] = assay: Antibacterial activity against wild type Acinetobacter baumannii ATCC 19606 assessed as reduction in microbial growth incubated for 20 to 22 hrs by CLSI based analysis; assay type: functional; conditions: time 20-22 hrs
Klebsiella pneumoniae [17] = assay: Antibacterial activity against Klebsiella pneumoniae ATCC 13883 harboring SbmA assessed as reduction in microbial growth incubated for 20 to 22 hrs by CLSI based analysis; assay type: functional; conditions: time 20-22 hrs

MIC (Escherichia coli [1]) | MIC (Acinetobacter baumannii [4]) | MIC (Klebsiella pneumoniae [7]) | SMILES | remaining at 4 h [2] | remaining at 4 h [3] | remaining at 1 h [5] | remaining at 1 h [6] | further results
0.5 µg/mL | > 32 µg/mL | 0.5 µg/mL | CO[C@@H](CNC(=O)[C@H](NC(=O)[C@H](O)[C@H](C)O)[C@H](O)c1cncn1C)[C@H](O)[C@H](O)C(=O)N(C)[C@@H](Cc1ccc(F)cc1)C(=O)NCC(=O)N[C@H](C(=O)N[C@@H](CO)C(=O)N[C@H](C(=O)N[C@H](C(=O)N[C@@H](CO)C(=O)O)C(C)(C)C)C(C)(C)O)C(C)(C)O | 109% | 84% | 89% | 109% | 
4 µg/mL | > 32 µg/mL | > 32 µg/mL | CO[C@@H](CNC(=O)[C@H](NC(=O)[C@H](O)[C@H](C)O)[C@H](O)c1cncn1C)[C@H](O)[C@H](O)C(=O)N(C)[C@@H](Cc1ccccc1)C(=O)NCC(=O)N[C@H](C(=O)N[C@@H](C)C(=O)N[C@H](C(=O)N[C@@H](CC(C)C)C(=O)N[C@@H](CO)C(=O)O)C(C)(C)O)C(C)(C)O |  |  |  |  | 
8 µg/mL | > 32 µg/mL | > 32 µg/mL | CO[C@@H](CNC(=O)[C@H](NC(=O)[C@H](O)[C@H](C)O)[C@H](O)c1cncn1C)[C@H](O)[C@H](O)C(=O)N(C)[C@@H](Cc1ccccc1)C(=O)N[C@@H](C)C(=O)N[C@H](C(=O)N[C@@H](CO)C(=O)N[C@H](C(=O)N[C@@H](CC(C)C)C(=O)N[C@@H](CO)C(=O)O)C(C)(C)O)C(C)(C)O |  |  |  |  | 
8 µg/mL | > 32 µg/mL | 64 µg/mL | CO[C@@H](CNC(=O)[C@H](NC(=O)[C@H](O)[C@H](C)O)[C@H](O)c1cncn1C)[C@H](O)[C@H](O)C(=O)N(C)[C@@H](Cc1ccccc1)C(=O)NCC(=O)N[C@H](C(=O)N[C@@H](CO)C(=O)N[C@H](C(=O)N[C@@H](C)C(=O)N[C@@H](CO)C(=O)O)C(C)(C)O)C(C)(C)O |  |  |  |  | 
> 32 µg/mL | > 32 µg/mL | > 32 µg/mL | CO[C@@H](CNC(=O)[C@H](NC(=O)[C@H](O)[C@H](C)O)[C@H](O)c1cncn1C)[C@H](O)[C@H](O)C(=O)N(C)[C@@H](Cc1ccccc1)C(=O)NCC(=O)N[C@@H](C)C(=O)N[C@@H](CO)C(=O)N[C@H](C(=O)N[C@@H](CC(C)C)C(=O)N[C@@H](CO)C(=O)O)C(C)(C)O |  |  |  |  | 
0.125 µg/mL | > 8 µg/mL | 0.25 µg/mL | CO[C@@H](CNC(=O)[C@H](NC(=O)[C@H](O)[C@H](C)O)[C@H](O)c1cncn1C)[C@H](O)[C@H](O)C(=O)N(C)[C@@H](Cc1ccc(F)cc1)C(=O)NCC(=O)N[C@H](C(=O)N[C@@H](CO)C(=O)N[C@H](C(=O)N[C@H](C(=O)N[C@@H](CO)C(=O)NCCN)C(C)(C)C)C(C)(C)O)C(C)(C)O | 92% |  |  | 105% | Stability ([3]; 4 h): 138%; Stability ([5]; 1 h): 127%; Activity (Escherichia coli [8]): -5.6 log10CFU
2 µg/mL | > 32 µg/mL | 8 µg/mL | CO[C@@H](CNC(=O)[C@H](NC(=O)[C@H](O)[C@H](C)O)[C@H](O)c1cncn1C)[C@H](O)[C@H](O)C(=O)N(C)[C@@H](Cc1ccccc1)C(=O)NCC(=O)N[C@H](C(=O)N[C@@H](CO)C(=O)N[C@H](C(=O)N[C@@H](CC(C)C)C(=O)N[C@@H](CO)C(=O)NCCN)C(C)(C)O)C(C)(C)O |  |  |  |  | Activity (Escherichia coli [9]): -4.1 log10CFU
 |  |  | CO[C@@H](CNC(=O)[C@H](NC(=O)[C@H](O)[C@H](C)O)[C@H](O)c1cncn1C)[C@H](O)[C@H](O)C(=O)N(C)[C@@H](Cc1ccccc1)C(=O)NCC(=O)N[C@H](C(=O)N[C@@H](CO)C(=O)N[C@H](C(=O)N[C@H](C(=O)N[C@@H](CO)C(=O)N[C@@H](CCC(=O)NCc1cc(=O)c(O)cn1O)C(=O)O)C(C)(C)C)C(C)(C)O)C(C)(C)O | 81% | 86% | 91% | 92% | Activity (Escherichia coli [10]): Active; MIC (Klebsiella pneumoniae [11]): 0.06 µg/mL; MIC (Escherichia coli [12]): 0.12 µg/mL; Activity (Klebsiella pneumoniae [13]): Active; MIC (Escherichia coli [14]): < 0.01 µg/mL; Activity (Klebsiella pneumoniae [15]): Active; Activity (Escherichia coli [8]): -3.8 log10CFU; MIC (Acinetobacter baumannii [16]): 0.25 µg/mL; MIC (Klebsiella pneumoniae [17]): > 32 µg/mL
32 µg/mL | > 32 µg/mL | 64 µg/mL | CO[C@@H](CNC(=O)[C@H](NC(=O)[C@H](O)[C@H](C)O)[C@H](O)c1cncn1C)[C@H](O)[C@H](O)C(=O)N(C)[C@@H](Cc1ccccc1)C(=O)NCC(=O)N[C@H](C(=O)N[C@@H](CO)C(=O)N[C@@H](C)C(=O)N[C@@H](CC(C)C)C(=O)N[C@@H](CO)C(=O)O)C(C)(C)O |  |  |  |  | 
 |  |  | CO[C@@H](CNC(=O)[C@H](NC(=O)[C@H](O)[C@H](C)O)[C@H](O)c1cncn1C)[C@H](O)[C@H](O)C(=O)N(C)[C@@H](Cc1ccc(F)cc1)C(=O)NCC(=O)N[C@H](C(=O)N[C@@H](CO)C(=O)N[C@H](C(=O)N[C@H](C(=O)N[C@@H](CO)C(=O)NCc1cc(=O)c(O)cn1O)C(C)(C)C)C(C)(C)O)C(C)(C)O | 28% | 54% | 81% | 44% | MIC (Klebsiella pneumoniae [11]): 0.125 µg/mL; MIC (Escherichia coli [12]): 2 µg/mL; MIC (Escherichia coli [14]): < 0.01 µg/mL; Activity (Escherichia coli [8]): -5.6 log10CFU; MIC (Acinetobacter baumannii [16]): 0.5 µg/mL; MIC (Klebsiella pneumoniae [17]): > 32 µg/mL
 |  |  | CO[C@@H](CNC(=O)[C@H](NC(=O)[C@H](O)[C@H](C)O)[C@H](O)c1cncn1C)[C@H](O)[C@H](O)C(=O)N(C)[C@@H](Cc1ccc(F)cc1)C(=O)NCC(=O)N[C@H](C(=O)N[C@@H](CO)C(=O)N[C@H](C(=O)N[C@H](C(=O)N[C@@H](CO)C(=O)N[C@@H](CN)C(=O)NCc1cc(=O)c(O)cn1O)C(C)(C)C)C(C)(C)O)C(C)(C)O | 95% | 107% | 96% | 97% | Activity (Escherichia coli [10]): Active; MIC (Klebsiella pneumoniae [11]): 0.12 µg/mL; MIC (Escherichia coli [12]): 4 µg/mL; Activity (Klebsiella pneumoniae [13]): Active; MIC (Escherichia coli [14]): 0.01 µg/mL; Activity (Klebsiella pneumoniae [15]): Active; MIC (Acinetobacter baumannii [16]): 0.5 µg/mL; MIC (Klebsiella pneumoniae [17]): > 32 µg/mL
> 64 µg/mL | > 32 µg/mL | > 64 µg/mL | CO[C@@H](CNC(=O)[C@H](N)[C@H](O)c1cncn1C)[C@H](O)[C@H](O)C(=O)N(C)[C@@H](Cc1ccccc1)C(=O)NCC(=O)N[C@H](C(=O)N[C@@H](CO)C(=O)N[C@H](C(=O)N[C@@H](CC(C)C)C(=O)N[C@@H](CO)C(=O)O)C(C)(C)O)C(C)(C)O |  |  |  |  | 
4 µg/mL | > 32 µg/mL | 16 µg/mL | CO[C@@H](CNC(=O)[C@H](NC(=O)[C@H](O)[C@H](C)O)[C@H](O)c1cncn1C)[C@H](O)[C@H](O)C(=O)N(C)[C@@H](Cc1ccccc1)C(=O)NCC(=O)N[C@H](C(=O)N[C@@H](CO)C(=O)N[C@H](C(=O)N[C@@H](CC(C)C)C(=O)N[C@@H](C)C(=O)O)C(C)(C)O)C(C)(C)O |  |  |  |  | 
 |  |  | CO[C@@H](CNC(=O)[C@H](NC(=O)[C@H](O)[C@H](C)O)[C@H](O)c1cncn1C)[C@H](O)[C@H](O)C(=O)N(C)[C@@H](Cc1ccccc1)C(=O)NCC(=O)N[C@H](C(=O)N[C@@H](CO)C(=O)N[C@H](C(=O)N[C@H](C(=O)N[C@@H](CCC(=O)NCc1cc(=O)c(O)cn1O)C(=O)O)C(C)(C)C)C(C)(C)O)C(C)(C)O | 103% | 99% | 100% | 97% | Activity (Escherichia coli [10]): Active; MIC (Klebsiella pneumoniae [11]): 0.25 µg/mL; MIC (Escherichia coli [12]): 0.12 µg/mL; Activity (Klebsiella pneumoniae [13]): Active; MIC (Escherichia coli [14]): 0.01 µg/mL; Activity (Klebsiella pneumoniae [15]): Active; Activity (Escherichia coli [8]): -3.2 log10CFU; MIC (Acinetobacter baumannii [16]): 0.5 µg/mL; MIC (Klebsiella pneumoniae [17]): > 32 µg/mL
